# Earlier results as cited in patent publication US4960596A (Ethypharm, priority 1987, dated 1990).
# Counter-ions that a name gives are not always drawn.
# What was measured:
# [1] = literature
# [2] = test system: special channels to be found in the membranes of a variety of cells (calcium)
# sodium-potassium pump = details: smooth muscle cells and other types of cell
compound,measurement,setting,value
"COc1ccc(C2Sc3ccccc3N(CCN(C)C)C(=O)C2OC(C)=O)cc1 (stereo not drawn) [Diltiazem, Diltiazem hydrochloride]",half life,[1],four hours to seven hours
same,calcium inflow,[2],inhibit the inflow of calcium
same,heart pacemaker activity and auriculo-ventricular node conduction,heart muscle,depressive effective on heart pacemaker activity and on auriculo-ventricular node conduction resulting in a negative chronotropic effect
same,inotropic effect,heart muscle,weak negative inotropic effect on the heart muscle
same,effect on smooth muscle,smooth muscle,vasodilatation of smooth muscle
same,intra-cellular sodium,sodium-potassium pump,reduces intra-cellular sodium by stimulating the sodium-potassium pump
